# Laboratory results taken from ChEMBL document CHEMBL1240514, “Design and synthesis of potent "sulfur-free" transition state analogue inhibitors of 5'-methylthioadenosine nucleosidase and 5'-methylthioadenosine phosphorylase” (J Med Chem, 2010).
# Activity calls are given as the source filed them. The rule behind the calls is not given here.
# Target: T1, S-methyl-5'-thioadenosine phosphorylase (Homo sapiens, UniProt Q13126)
# T1 sequence (Q13126 whole entry): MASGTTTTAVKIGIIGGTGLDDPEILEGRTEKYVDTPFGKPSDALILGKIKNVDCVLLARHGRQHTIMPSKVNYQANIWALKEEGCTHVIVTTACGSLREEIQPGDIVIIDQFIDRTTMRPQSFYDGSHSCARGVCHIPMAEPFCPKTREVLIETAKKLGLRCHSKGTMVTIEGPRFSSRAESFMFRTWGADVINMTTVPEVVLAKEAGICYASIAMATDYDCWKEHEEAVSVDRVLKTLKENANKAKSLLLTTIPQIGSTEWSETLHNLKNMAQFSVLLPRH
# Assay: Inhibition of His-tagged human MTAP
row,Compound,Ki [nM]
1,CC[C@H]1CN(Cc2c[nH]c3c(N)ncnc23)C[C@@H]1O,0.7
2,C=CC[C@H]1CN(Cc2c[nH]c3c(N)ncnc23)C[C@@H]1O (racemic),3
3,Nc1ncnc2c(CN3C[C@H](C4CC4)[C@@H](O)C3)c[nH]c12 (racemic),2.1
4,C=C[C@H]1CN(Cc2c[nH]c3c(N)ncnc23)C[C@@H]1O (racemic),3.2
5,C#C[C@H]1CN(Cc2c[nH]c3c(N)ncnc23)C[C@@H]1O (racemic),31
6,CC[C@H]1CN(Cc2c[nH]c3c(N)ncnc23)C[C@H]1O (racemic),34
7,CC(C)C[C@H]1CN(Cc2c[nH]c3c(N)ncnc23)C[C@@H]1O (racemic),1.7
8,Nc1ncnc2c(CN3C[C@H](C4CCCC4)[C@@H](O)C3)c[nH]c12 (racemic),2.6
9,Nc1ncnc2c(CN3C[C@H](CC4CCCCC4)[C@@H](O)C3)c[nH]c12 (racemic),14
10,Nc1ncnc2c(CN3C[C@H](c4ccccc4)[C@@H](O)C3)c[nH]c12 (racemic),8
11,Nc1ncnc2c(CN3C[C@H](O)[C@@H](n4ccnn4)C3)c[nH]c12 (racemic),59
12,Nc1ncnc2c(CN3C[C@H](CCCSCc4ccccc4)[C@@H](O)C3)c[nH]c12 (racemic),71

# Target: T2, S-methyl-5'-thioadenosine phosphorylase (Homo sapiens) (UniProt Q13126)
# T2 sequence (whole entry): T1 sequence (Q13126 whole entry)
# Assay: Inhibition of His-tagged human MTAP at 2.5 uM
row,Compound,inhibition
1,Nc1ncnc2c(CN3C[C@H](c4cn(Cc5ccccc5)nn4)[C@@H](O)C3)c[nH]c12 (racemic),inactive
